Consider one molecule from patent US9884850B2, “Pyrimidine hydroxy amide compounds as HDAC6 selective inhibitors” (Acetylon Pharmaceuticals, Inc., priority 2014, dated 2018).

“Also recorded” adds a separate entry of the source.

This assay relates to taxol induced neuropathic pain model in rats. Nature of the assay: Taxol induced neuropathic pain study in rats (Von Frey testing). In kind it is in vivo, rat. Conditions: taxol treated rats, 1, 3, 10 mg/kg PO b.i.d. On the procedure: This study included a histology endpoint in addition to the von Frey testing for paw sensitivity.
Neuropathic pain is induced by a 0.5 ml/kg injection of Taxol (2 mg/kg) administered IP on days 0-12. The development of neuropathic pain is confirmed by measuring mechanical allodynia (Von Frey test) on study day 13.
Allodynic response to tactile stimulation is assessed using the Von Frey apparatus (Touch Test®).
The rat will be placed in an enclosure and positioned on a metal mesh surface, but allowed to move freely. The rats' cabins are covered with red cellophane to diminish environmental disturbances. The test begins after a cessation of exploratory behavior. The set of Von Frey monofilaments provide an approximate logarithmic scale of actual force and a linear scale of perceived intensity.
The operating principle: when the tip of a fiber of given length and diameter is pressed against the skin at right angles, the force of application increases as long as the researcher continues to advance the probe until the fiber bends. After the fiber bends, the probe continues to advance, causing the fiber to bend more, but without additional force being applied. […] The Touch Test™ Sensory Evaluator can be used on the plantar surfaces of the rat's foot. The animal indicates sensation by pulling back its paw. […]

For `O=C(NO)c1cnc(NC2(c3ccccc3)CCC(F)(F)CC2)nc1` [Compound 003], the “Effect on nociception / tactile allodynia (Von Frey)” value was “completely reversed nociception; also recorded: reduced tactile allodynia”.
